In patent publication US20040156869A1, “2-substituted quinazolin-4-ylamine analogues” (Neurogen Corporation, priority 2002, published 2004):

The molecules below were run against human capsaicin receptor (VR1) (Homo sapiens, UniProt Q8NER1) (assay: Capsaicin receptor binding assay ([3H]RTX competition, VR1-transfected HEK293 membranes)).
human capsaicin receptor (VR1), sequence (Q8NER1 whole entry): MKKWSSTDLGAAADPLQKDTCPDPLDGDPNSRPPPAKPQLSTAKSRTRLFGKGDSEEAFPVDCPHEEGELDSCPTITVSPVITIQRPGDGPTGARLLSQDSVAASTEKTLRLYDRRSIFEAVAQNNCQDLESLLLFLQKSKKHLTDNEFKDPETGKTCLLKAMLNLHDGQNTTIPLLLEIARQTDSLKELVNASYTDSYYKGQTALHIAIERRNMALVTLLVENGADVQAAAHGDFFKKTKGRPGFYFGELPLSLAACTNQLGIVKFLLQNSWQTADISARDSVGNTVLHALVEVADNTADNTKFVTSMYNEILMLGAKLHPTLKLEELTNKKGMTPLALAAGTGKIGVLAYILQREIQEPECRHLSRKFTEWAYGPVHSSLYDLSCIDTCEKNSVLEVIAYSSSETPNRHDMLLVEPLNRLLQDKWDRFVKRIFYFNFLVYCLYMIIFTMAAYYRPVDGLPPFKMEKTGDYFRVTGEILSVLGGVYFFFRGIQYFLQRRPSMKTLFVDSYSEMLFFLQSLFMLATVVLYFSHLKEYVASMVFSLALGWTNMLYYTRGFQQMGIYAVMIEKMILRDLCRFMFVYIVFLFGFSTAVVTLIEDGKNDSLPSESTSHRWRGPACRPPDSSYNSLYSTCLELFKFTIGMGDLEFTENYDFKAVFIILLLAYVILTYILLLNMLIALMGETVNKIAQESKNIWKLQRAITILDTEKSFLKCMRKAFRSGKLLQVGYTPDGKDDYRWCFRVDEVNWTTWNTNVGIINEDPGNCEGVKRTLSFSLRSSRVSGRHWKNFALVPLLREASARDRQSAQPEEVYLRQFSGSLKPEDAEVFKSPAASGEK

Ki, < 1000 nM:
CCc1ccc(Nc2nc(CN3CC(C)O[C@H](C)C3)nc3cc(-c4ncccc4C(F)(F)F)ccc23)cc1 (stereo in doubt) [Compound 653, (R,R)-[2-(2,6-Dimethyl-morpholin-4-ylmethyl)-7-(3-trifluoromethyl-pyridin-2-yl)-quinazolin-4-yl]-(4-ethyl-phenyl)-amine]
CC(C)(C)c1ccc(Nc2nc(CN3C[C@@H](O)C[C@@H]3C(=O)O)nc3cc(-c4ncccc4C(F)(F)F)ccc23)cc1 (stereo in doubt) [Compound 753, (R,S)-1-[4-(4-tert-Butyl-phenylamino)-7-(3-trifluoromethyl-pyridin-2-yl)-quinazolin-2-ylmethyl]-4-hydroxy-pyrrolidine-2-carboxylic acid]
CC(=O)OCc1nc(Nc2ccc(C(F)(F)F)cc2)c2ccc(-c3ncccc3C(F)(F)F)cc2n1 [Compound 9, Acetic acid 4-(4-trifluoromethyl-phenylamino)-7-(3-trifluoromethyl-pyridin-2-yl)-quinazolin-2-ylmethyl ester]
FC(F)(F)c1ccc(Nc2nc(CCCOCc3ccccc3)nc3cc(-c4ncccc4C(F)(F)F)ccc23)cc1 [Compound 12, [2-(3-Benzyloxy-propyl)-7-(3-trifluoromethyl-pyridin-2-yl)-quinazolin-4-yl]-(4-trifluoromethyl-phenyl)-amine]
FC(F)(F)c1ccc(Nc2nc(CCCOCc3ccccc3)nc3cc(-c4ncccc4C(F)(F)F)ccc23)cn1 [Compound 13, [2-(3-Benzyloxy-propyl)-7-(3-trifluoromethyl-pyridin-2-yl)-quinazolin-4-yl]-(6-trifluoromethyl-pyridin-3-yl)-amine]
CC(C)(C)c1ccc(Nc2nc(CCCOCc3ccccc3)nc3cc(-c4ncccc4C(F)(F)F)ccc23)cn1 [Compound 15, [2-(3-Benzyloxy-propyl)-7-(3-trifluoromethyl-pyridin-2-yl)-quinazolin-4-yl]-(6-tert-butyl-pyridin-3-yl)-amine]
CC(C)(C)c1ccc(Nc2nc(CCCO)nc3cc(-c4ncccc4C(F)(F)F)ccc23)cn1 [Compound 16, 3-[4-(6-tert-Butyl-pyridin-3-ylamino)-7-(3-trifluoromethyl-pyridin-2-yl)-quinazolin-2-yl]-propan-1-ol]
COC(=O)CCc1nc(Nc2ccc(C(F)(F)F)cc2)c2ccc(-c3ncccc3C(F)(F)F)cc2n1 [Compound 17, 3-[4-(4-Trifluoromethyl-phenylamino)-7-(3-trifluoromethyl-pyridin-2-yl)-quinazolin-2-yl]-propionic acid methyl ester]
COC(=O)CCc1nc(Nc2ccc(C(F)(F)F)nc2)c2ccc(-c3ncccc3C(F)(F)F)cc2n1 [Compound 18, 3-[7-(3-Trifluoromethyl-pyridin-2-yl)-4-(6-trifluoromethyl-pyridin-3-ylamino)-quinazolin-2-yl]-propionic acid methyl ester]
CCOC(=O)Cc1nc(Nc2ccc(C(F)(F)F)cc2)c2ccc(-c3ncccc3C(F)(F)F)cc2n1 [Compound 20, [4-(4-Trifluoromethyl-phenylamino)-7-(3-trifluoromethyl-pyridin-2-yl)-quinazolin-2-yl]-acetic acid ethyl ester]
CC(=O)OCc1nc(Nc2ccc(C(F)(F)F)nc2)c2ccc(-c3ncccc3C(F)(F)F)cc2n1 [Compound 21, Acetic acid 7-(3-trifluoromethyl-pyridin-2-yl)-4-(6-trifluoromethyl-pyridin-3-ylamino)-quinazolin-2-ylmethyl ester]
OCc1nc(Nc2ccc(C(F)(F)F)nc2)c2ccc(-c3ncccc3C(F)(F)F)cc2n1 [Compound 22, [7-(3-Trifluoromethyl-pyridin-2-yl)-4-(6-trifluoromethyl-pyridin-3-ylamino)-quinazolin-2-yl]-methanol]
CC(c1ccc(Nc2nc(COCc3ccccc3)nc3cc(-c4ncccc4C(F)(F)F)ccc23)cc1)C(F)(F)F (stereo not drawn) [Compound 23, [2-Benzyloxymethyl-7-(3-trifluoromethyl-pyridin-2-yl)-quinazolin-4-yl]-[4-(2,2,2-trifluoro-1-methyl-ethyl)-phenyl]-amine]
FC(F)(F)c1ccc(Nc2nc(COCc3ccccc3)nc3cc(-c4ncccc4C(F)(F)F)ccc23)cn1 [Compound 25, [2-Benzyloxymethyl-7-(3-trifluoromethyl-pyridin-2-yl)-quinazolin-4-yl]-(6-trifluoromethyl-pyridin-3-yl)-amine]
FC(F)(F)c1ccc(Nc2nc(COCc3ccccc3)nc3cc(-c4ncccc4C(F)(F)F)ccc23)nc1 [Compound 26, [2-Benzyloxymethyl-7-(3-trifluoromethyl-pyridin-2-yl)-quinazolin-4-yl]-(5-trifluoromethyl-pyridin-2-yl)-amine]
FC(F)(F)Oc1ccc(Nc2nc(COCc3ccccc3)nc3cc(-c4ncccc4C(F)(F)F)ccc23)cc1 [Compound 27, [2-Benzyloxymethyl-7-(3-trifluoromethyl-pyridin-2-yl)-quinazolin-4-yl]-(4-trifluoromethoxy-phenyl)-amine]
O=S(=O)(c1ccc(Nc2nc(COCc3ccccc3)nc3cc(-c4ncccc4C(F)(F)F)ccc23)cc1)C(F)(F)F [Compound 28, [2-Benzyloxymethyl-7-(3-trifluoromethyl-pyridin-2-yl)-quinazolin-4-yl]-(4-trifluoromethanesulfonyl-phenyl)-amine]
CCN(CC)CCOCc1nc(Nc2ccc(C(F)(F)F)nc2)c2ccc(-c3ncccc3C(F)(F)F)cc2n1 [Compound 29, [2-(2-Diethylamino-ethoxymethyl)-7-(3-trifluoromethyl-pyridin-2-yl)-quinazolin-4-yl]-(6-trifluoromethyl-pyridin-3-yl)-amine]
FC(F)(F)c1ccc(Nc2nc(COCCN3CCCCC3)nc3cc(-c4ncccc4C(F)(F)F)ccc23)cn1 [Compound 30, [2-(2-Piperidin-1-yl-ethoxymethyl)-7-(3-trifluoromethyl-pyridin-2-yl)-quinazolin-4-yl]-(6-trifluoromethyl-pyridin-3-yl)-amine]
CN1CCC(OCc2nc(Nc3ccc(C(F)(F)F)nc3)c3ccc(-c4ncccc4C(F)(F)F)cc3n2)CC1 [Compound 31, [2-(1-Methyl-piperidin-4-yloxymethyl)-7-(3-trifluoromethyl-pyridin-2-yl)-quinazolin-4-yl]-(6-trifluoromethyl-pyridin-3-yl)-amine]
COCc1nc(Nc2ccc(S(C)(=O)=O)cc2)c2ccc(-c3ncccc3C(F)(F)F)cc2n1 [Compound 32, (4-Methanesulfonyl-phenyl)-[2-methoxymethyl-7-(3-trifluoromethyl-pyridin-2-yl)-quinazolin-4-yl]-amine]
COCc1nc(Nc2ccc(S(=O)(=O)C(F)(F)F)cc2)c2ccc(-c3ncccc3C(F)(F)F)cc2n1 [Compound 35, [2-Methoxymethyl-7-(3-trifluoromethyl-pyridin-2-yl)-quinazolin-4-yl]-(4-trifluoromethanesulfonyl-phenyl)-amine]
COCc1nc(Nc2ccc(C(C)(C)COC)cc2)c2ccc(-c3ncccc3C(F)(F)F)cc2n1 [Compound 36, [4-(2-Methoxy-1,1-dimethyl-ethyl)-phenyl]-[2-methoxymethyl-7-(3-trifluoromethyl-pyridin-2-yl)-quinazolin-4-yl]-amine]
COCc1nc(Nc2ccc(S(=O)(=O)NC(C)(C)C)cc2)c2ccc(-c3ncccc3C(F)(F)F)cc2n1 [Compound 37, N-tert-Butyl-4-[2-methoxymethyl-7-(3-trifluoromethyl-pyridin-2-yl)-quinazolin-4-ylamino]-benzenesulfonamide]
CC(C)(C)NS(=O)(=O)c1ccc(Nc2nc(COCc3ccccc3)nc3cc(-c4ncccc4C(F)(F)F)ccc23)cc1 [Compound 38, 4-[2-Benzyloxymethyl-7-(3-trifluoromethyl-pyridin-2-yl)-quinazolin-4-ylamino]-N-tert-butyl-benzenesulfonamide]
CS(=O)(=O)c1ccc(Nc2nc(COCc3ccccc3)nc3cc(-c4ncccc4C(F)(F)F)ccc23)cc1 [Compound 40, [2-Benzyloxymethyl-7-(3-trifluoromethyl-pyridin-2-yl)-quinazolin-4-yl]-(4-methanesulfonyl-phenyl)-amine]
CC(C)(C#N)c1ccc(Nc2nc(COCc3ccccc3)nc3cc(-c4ncccc4C(F)(F)F)ccc23)cc1 [Compound 41, 2-{4-[2-Benzyloxymethyl-7-(3-trifluoromethyl-pyridin-2-yl)-quinazolin-4-ylamino]-phenyl}-2-methyl-propionitrile]
COCC(C)(C)c1ccc(Nc2nc(COCc3ccccc3)nc3cc(-c4ncccc4C(F)(F)F)ccc23)cc1 [Compound 42, [2-Benzyloxymethyl-7-(3-trifluoromethyl-pyridin-2-yl)-quinazolin-4-yl]-[4-(2-methoxy-1,1-dimethyl-ethyl)-phenyl]-amine]
CC(C)(C)c1ccc(Nc2nc(COCc3ccccc3)nc3cc(-c4ncccc4C(F)(F)F)ccc23)cc1 [Compound 43, [2-Benzyloxymethyl-7-(3-trifluoromethyl-pyridin-2-yl)-quinazolin-4-yl]-(4-tert-butyl-phenyl)-amine]
CS(=O)(=O)N1CCc2cc(Nc3nc(COCc4ccccc4)nc4cc(-c5ncccc5C(F)(F)F)ccc34)ccc21 [Compound 44, [2-Benzyloxymethyl-7-(3-trifluoromethyl-pyridin-2-yl)-quinazolin-4-yl]-(1-methanesulfonyl-2,3-dihydro-1H-indol-5-yl)-amine]
